From patent publication US12295936B2, “Immunomodulating urea azalides” (Zoetis Services LLC, priority 2020, dated 2025) come the findings set out here.

Common to all, as to assay: LPS-stimulated whole bovine blood assay, MSD cytokine detection
Assay type in all cases: cell-based

In one assay the test system is IL-1β. The following applies: overstimulation of IL-1β, LPS-stimulated bovine whole blood. Here is the method:
The effect of multiple cytokines was not easily quantified using single cell types. Therefore, a fresh whole bovine blood assay was developed with LPS as a stimulant (TLR-4 agonist) and with IL-1β and TNF-α as the read-out. Compounds of the invention were evaluated against a positive control for their ability to inhibit LPS-induced IL-1β and TNF-α as an overall evaluation of relative potency and modulation of target pathways (Table 6).
(§1) In order to correlate RNA sequencing data to cytokine changes the whole blood assay was utilized. […] The enhancement result represents an overall stimulation of cytokine levels due to cellular stress or potential toxicity with increasing concentrations of the compound, representing a typical bell shape response curve for immunomodulatory activity.
In the bovine whole blood in vitro screening assay the inhibition of TNFα as induced by stimulation by lipopolysaccharide (LPS) and as measured by half the maximal inhibitory concentration (IC50) is recognized as the primary biomarker of immunomodulation potency upon pretreatment with the compounds of the invention.

In a further assay the test system is IL-6. The following applies: read-out: IL-6 (IC50 μM).
Text: as §1

A further assay relates to TNF-α. The following applies: read-out: TNF-α (IC50 μM). Here is the method: Therefore, a fresh whole bovine blood assay was developed with LPS as a stimulant (TLR-4 agonist) and with IL-1β and TNF-α as the read-out. Compounds of the invention were evaluated against a positive control for their ability to inhibit LPS-induced IL-1β and TNF-α as an overall evaluation of relative potency and modulation of target pathways (Table 6).
In the bovine whole blood in vitro screening assay the inhibition of TNFα as induced by stimulation by lipopolysaccharide (LPS) and as measured by half the maximal inhibitory concentration (IC50) is recognized as the primary biomarker of immunomodulation potency upon pretreatment with the compounds of the invention. IL-1β is a mediator of the inflammation response and is involved in a number of cellular activities including proliferation, differentiation and apoptosis. IL-1β is also released upon cellular stress or cytotoxicity or upon TLR stimulation. In the bovine whole blood assay the stimulation of IL-1β release upon increasing concentration of test compound is seen as a potential cellular toxicity signal as induced by the test compound. In order to estimate a therapeutic index from the in vitro assay a differential between the TNFα IC50 (immunomodulation potency) versus the perceived cellular toxicity concentration (IL-1β release or overstimulation) was utilized.

[1] abbreviates: Bos taurus, LPS-stimulated bovine whole blood.
Setting [2] is: LPS-stimulated bovine whole blood.

Like-named read-outs stand apart in the source and are kept apart here.

A word on the IC50: it is the concentration at which inhibition is half-maximal. In the case of `CCCNC[C@]1(O)[C@H](C)O[C@@H](O[C@H]2[C@H](C)[C@@H](O[C@@H]3O[C@H](C)C[C@H](N(C)C(=O)Nc4ccccc4OC)[C@H]3O)[C@](C)(O)C[C@@H](C)CN[C@H](C)[C@@H](O)[C@](C)(O)[C@@H](CC)OC(=O)[C@@H]2C)C[C@@]1(C)OC` [Example H-76, 1-((2S,3R,4S,6R)-2-(((2R,3S,4R,5R,8R,10R,11R,12S,13S,14R)-2-ethyl-3,4,10-trihydroxy-13-(((2R,4R,5S,6S)-5-hydroxy-4-methoxy-4,6-dimethyl-5-((propylamino)methyl)tetrahydro-2H-pyran-2-yl)oxy)-3,5,8,10,12,14-hexamethyl-15-oxo-1-oxa-6-azacyclopentadecan-11-yl)oxy)-3-hydroxy-6-methyltetrahydro-2H-pyran-4-yl)-3-(2-methoxyphenyl)-1-methylurea], the “IL-1β OS of LPS” value in the assay with IL-1β came to 100 µM. For the same compound, the figures for the 50% inhibitory concentration (IC50) in the assay on IL-6 (setting [1]) and with TNF-α (setting [1]) were greater than 500 µM and 179 µM, respectively.

On to “3-ethyl-1-((2S,3R,4S,6R)-2-(((2R,3S,4R,5R,8R,10R,11R,12S,13S,14R)-2-ethyl-3,4,10-trihydroxy-13-(((2R,4R,5S,6S)-5-hydroxy-4-methoxy-4,6-dimethyl-5-((4-methylpiperazin-1-yl)methyl)tetrahydro-2H-pyran-2-yl)oxy)-3,5,8,10,12,14-hexamethyl-15-oxo-1-oxa-6-azacyclopentadecan-11-yl)oxy)-3-hydroxy-6-methyltetrahydro-2H-pyran-4-yl)-1-methylurea [Example J-9]”, for which the “IL-1β OS of LPS” value in the assay with IL-1β is greater than 500 µM. For the same compound, the IC50 in the assay with IL-6 (setting [2]) and in the assay with TNF-α (setting [2]) was greater than 500 µM in each case.

Turning to `CC[C@H]1OC(=O)[C@H](C)[C@@H](O[C@H]2C[C@@](C)(OC)[C@@](C)(O)[C@H](C)O2)[C@H](C)[C@@H](O[C@@H]2O[C@H](C)C[C@H](N(C)C(=O)N(C)c3ccccc3)[C@H]2O)[C@](C)(O)C[C@@H](C)CN[C@H](C)[C@@H](O)[C@]1(C)O` [Example B-1, 1-((2S,3R,4S,6R)-2-(((2R,3S,4R,5R,8R,10R,11R,12S,13S,14R)-2-ethyl-3,4,10-trihydroxy-13-(((2R,4R,5S,6S)-5-hydroxy-4-methoxy-4,5,6-trimethyltetrahydro-2H-pyran-2-yl)oxy)-3,5,8,10,12,14-hexamethyl-15-oxo-1-oxa-6-azacyclopentadecan-11-yl)oxy)-3-hydroxy-6-methyltetrahydro-2H-pyran-4-yl)-1,3-dimethyl-3-phenylurea], the “IL-1β OS of LPS” value in the assay on IL-1β worked out at 40 µM. Moreover, the 50% inhibitory concentration (IC50) with IL-6 (setting [1]) turned out to be 31 µM; in the assay with TNF-α (setting [1]) it was 25 µM.

As for `CCCNC[C@]1(O)[C@H](C)O[C@@H](O[C@H]2[C@H](C)[C@@H](O[C@@H]3O[C@H](C)C[C@H](N(Cc4cccnc4)C(=O)N(C)c4ccccc4)[C@H]3O)[C@](C)(O)C[C@@H](C)CN[C@H](C)[C@@H](O)[C@](C)(O)[C@@H](CC)OC(=O)[C@@H]2C)C[C@@]1(C)OC` [Example H-71, 1-((2S,3R,4S,6R)-2-(((2R,3S,4R,5R,8R,10R,11R,12S,13S,14R)-2-ethyl-3,4,10-trihydroxy-13-(((2R,4R,5S,6S)-5-hydroxy-4-methoxy-4,6-dimethyl-5-((propylamino)methyl)tetrahydro-2H-pyran-2-yl)oxy)-3,5,8,10,12,14-hexamethyl-15-oxo-1-oxa-6-azacyclopentadecan-11-yl)oxy)-3-hydroxy-6-methyltetrahydro-2H-pyran-4-yl)-3-methyl-3-phenyl-1-(pyridin-3-ylmethyl)urea], in the assay on IL-1β, the “IL-1β OS of LPS” value is 16 µM. Moreover, the half-inhibitory concentration (IC50) in the assay with IL-6 (setting [1]) was 35 µM; with TNF-α (setting [1]) it was 32 µM.

With `CC[C@H]1OC(=O)[C@H](C)[C@@H](O[C@H]2C[C@@](C)(OC)[C@](O)(CNCCCN3CCCCC3)[C@H](C)O2)[C@H](C)[C@@H](O[C@@H]2O[C@H](C)C[C@H](N(C)C(=O)N(C)c3ccccc3)[C@H]2O)[C@](C)(O)C[C@@H](C)CN[C@H](C)[C@@H](O)[C@]1(C)O` [Example H-38, 1-((2S,3R,4S,6R)-2-(((2R,3S,4R,5R,8R,10R,11R,12S,13S,14R)-2-ethyl-3,4,10-trihydroxy-13-(((2R,4R,5S,6S)-5-hydroxy-4-methoxy-4,6-dimethyl-5-(((3-(piperidin-1-yl)propyl)amino)methyl)tetrahydro-2H-pyran-2-yl)oxy)-3,5,8,10,12,14-hexamethyl-15-oxo-1-oxa-6-azacyclopentadecan-11-yl)oxy)-3-hydroxy-6-methyltetrahydro-2H-pyran-4-yl)-1,3-dimethyl-3-phenylurea], the “IL-1β OS of LPS” value in the assay on IL-1β was greater than 250 µM. Besides, the figures for the IC50 in the assay on IL-6 (setting [1]) and in the assay with TNF-α (setting [1]) were 36 µM and 49 µM, respectively.

With `CC[C@H]1OC(=O)[C@H](C)[C@@H](O[C@H]2C[C@@](C)(OC)[C@](O)(CNCCOC)[C@H](C)O2)[C@H](C)[C@@H](O[C@@H]2O[C@H](C)C[C@H](N(C)C(=O)N(C)c3ccccc3)[C@H]2O)[C@](C)(O)C[C@@H](C)CN[C@H](C)[C@@H](O)[C@]1(C)O` [Example H-18, 1-((2S,3R,4S,6R)-2-(((2R,3S,4R,5R,8R,10R,11R,12S,13S,14R)-2-ethyl-3,4,10-trihydroxy-13-(((2R,4R,5S,6S)-5-hydroxy-4-methoxy-5-(((2-methoxyethyl)amino)methyl)-4,6-dimethyltetrahydro-2H-pyran-2-yl)oxy)-3,5,8,10,12,14-hexamethyl-15-oxo-1-oxa-6-azacyclopentadecan-11-yl)oxy)-3-hydroxy-6-methyltetrahydro-2H-pyran-4-yl)-1,3-dimethyl-3-phenylurea], the “IL-1β OS of LPS” value in the assay on IL-1β turned out to be 40 µM. Moreover, the half-maximal inhibitory concentration (IC50) stood at 165 µM in the assay on IL-6 (setting [1]) and 24 µM in the assay with TNF-α (setting [1]).

Consider `CC[C@H]1OC(=O)[C@H](C)[C@@H](O[C@H]2C[C@@](C)(OC)[C@](O)(Cn3ncnn3)[C@H](C)O2)[C@H](C)[C@@H](O[C@@H]2O[C@H](C)C[C@H](N(C)C(=O)N(C)c3ccccc3)[C@H]2O)[C@](C)(O)C[C@@H](C)CN[C@H](C)[C@@H](O)[C@]1(C)O` [Example J-30, 1-((2S,3R,4S,6R)-2-(((2R,3S,4R,5R,8R,10R,11R,12S,13S,14R)-13-(((2R,4R,5S,6S)-5-((2H-tetrazol-2-yl)methyl)-5-hydroxy-4-methoxy-4,6-dimethyltetrahydro-2H-pyran-2-yl)oxy)-2-ethyl-3,4,10-trihydroxy-3,5,8,10,12,14-hexamethyl-15-oxo-1-oxa-6-azacyclopentadecan-11-yl)oxy)-3-hydroxy-6-methyltetrahydro-2H-pyran-4-yl)-1,3-dimethyl-3-phenylurea], for which the “IL-1β OS of LPS” value in the assay with IL-1β came out at 40 µM. Further, the figures for the half-inhibitory concentration (IC50) in the assay on IL-6 (Bos taurus) and in the assay with TNF-α (Bos taurus) were 111 µM and 16 µM, respectively.

For the compound `CC[C@H]1OC(=O)[C@H](C)[C@@H](O)[C@H](C)[C@@H](O[C@@H]2O[C@H](C)C[C@H](N(C)C(=O)Nc3ccccc3OC)[C@H]2O)[C@](C)(O)C[C@@H](C)CN[C@H](C)[C@@H](O)[C@]1(C)O` [Example A-8, 1-((2S,3R,4S,6R)-2-(((2R,3S,4R,5R,8R,10R,11R,12S,13S,14R)-2-ethyl-3,4,10,13-tetrahydroxy-3,5,8,10,12,14-hexamethyl-15-oxo-1-oxa-6-azacyclopentadecan-11-yl)oxy)-3-hydroxy-6-methyltetrahydro-2H-pyran-4-yl)-3-(2-methoxyphenyl)-1-methylurea], in the assay on IL-1β, the “IL-1β OS of LPS” value worked out at 101 µM. Moreover, the concentration for half-maximal inhibition (IC50) with IL-6 (setting [1]) was 16 µM; in the assay with TNF-α (setting [1]) it was greater than 250 µM.

For the compound `CCCNC[C@]1(O)[C@H](C)O[C@@H](O[C@H]2[C@H](C)[C@@H](O[C@@H]3O[C@H](C)C[C@H](NCC(C)C)[C@H]3Oc3ccccc3)[C@](C)(O)C[C@@H](C)CN[C@H](C)[C@@H](O)[C@](C)(O)[C@@H](CC)OC(=O)[C@@H]2C)C[C@@]1(C)OC` [E-155], in the assay on IL-1β, the “IL-1β OS of LPS” value was 6 µM. The IC50 in the assay with IL-6 (setting [2]) and in the assay on TNF-α (setting [2]) was 8 µM throughout.

For `CCCNC[C@]1(O)[C@H](C)O[C@@H](O[C@H]2[C@H](C)[C@@H](O[C@@H]3O[C@H](C)C[C@H](N(C)C(=O)Nc4ccccc4C)[C@H]3O)[C@](C)(O)C[C@@H](C)CN[C@H](C)[C@@H](O)[C@](C)(O)[C@@H](CC)OC(=O)[C@@H]2C)C[C@@]1(C)OC` [Example H-81, 1-((2S,3R,4S,6R)-2-(((2R,3S,4R,5R,8R,10R,11R,12S,13S,14R)-2-ethyl-3,4,10-trihydroxy-13-(((2R,4R,5S,6S)-5-hydroxy-4-methoxy-4,6-dimethyl-5-((propylamino)methyl)tetrahydro-2H-pyran-2-yl)oxy)-3,5,8,10,12,14-hexamethyl-15-oxo-1-oxa-6-azacyclopentadecan-11-yl)oxy)-3-hydroxy-6-methyltetrahydro-2H-pyran-4-yl)-1-methyl-3-(o-tolyl)urea], the “IL-1β OS of LPS” value in the assay on IL-1β was 39 µM. Besides, the half-maximal inhibitory concentration (IC50) was 47 µM in the assay with IL-6 (setting [1]) and greater than 250 µM in the assay on TNF-α (setting [1]).
